Laboratory results: US10676479B2, “Imidazolepyridine compounds and uses thereof” (Novartis AG, priority 2016, dated 2020)

Columns and labels:
[1] = test system: H3K27 methylation in G401 cell; experiment: ELISA (H3K27 methylation) assay; format: cell-based; settings: Homo sapiens, G-401, ELISA Qualified assay, 48 h, read-out: (c) IC50
Experimental: ELISA (H3K27 Methylation) Assay
Representative compounds of the present invention were serially and separately diluted 3-fold in DMSO to obtain a total of eight or twelve concentrations. Then the compounds were added to G401 cell cultured in 384-well plate at 1:500 dilution to obtain the highest concentration of 20 μM. The cells were further cultured for 48 h before ELISA procedure.
ELISA protocol: Cell lysates were transferred to the wells of a 384-well plate and the final volume was adjusted to 50 μL per well with PBS. The plate was sealed, centrifuged at 2,000 rpm for 2 min and incubated at 4° C. for about 16 h. The plate was washed with TBST buffer (1×TBS (10×TBS: 24.2 g Tris (Sigma, T6066), 80 g NaCl (Sigma, S3014) to 1 L of water and adjust pH to 7.6 with HCl) with 0.1% Tween-20). Blocking buffer (TBST, 5% BSA; 50 μL per well) was added and the plate was incubated for 1 h at rt. The blocking buffer was removed and primary antibody was added (30 μL per well). […] The primary antibody was incubated in the plate at rt for 1 h. The wells were washed with TBST and incubated with secondary antibody for 1 h at rt. […] After 1 h of incubation at rt, the wells were washed with TBST. […] The signal was read using a PerkinElmer Envision Reader. The H3K27 methylation readouts were normalized using H3 signal and then percentage inhibition was calculated against the samples treated with DMSO. The data were then fit to a dose response curve using the program Helios to get the IC50 values of the test compound.

EED (1-441)-His protein = EED (1-441)-His protein (Homo sapiens (Human), UniProt O75530); experiment: EED-H3K27Me3 peptide competition binding assay by AlphaScreen; settings: EED Alphascreen binding Qualified assay
Experimental: Then 4 μL of detection beads mix was added to the plate and incubate in the dark at the rt for 1 h. The final concentration of donor and acceptor beads was 10 μg/mL for each. […] The data were then fit to a dose response equation using the program Helios (Novartis) to get the IC50 values. […] Sebaugh, J. […] Each compound was counter screened to determine if it interfered with the AlphaScreen beads. […] The plates were then incubated for 1 h at rt in dark before being read on EnVison.

[2] = target: wild type PRC2 (wtPRC2) complex (Homo sapiens (Human), UniProt O75530); experiment: EED LC-MS assay; format: biochemical; settings: EED LC-MS Qualified assay; read-out: (b) IC50
Experimental: EED LC-MS Assay Representative compounds of the present invention were serially and separately diluted 3-fold in DMSO to obtain a total of eight or twelve concentrations. […] A 6 μL solution of 3 μM of the peptide substrate H3K27Me0 (histone H3[21-44]-biotin) in reaction buffer was added to initiate each reaction. […] The data were then fit to a dose response equation using the program Helios to get the IC50 values of the test compound.

Chain of wild type PRC2 (wtPRC2) complex (O75530 whole entry): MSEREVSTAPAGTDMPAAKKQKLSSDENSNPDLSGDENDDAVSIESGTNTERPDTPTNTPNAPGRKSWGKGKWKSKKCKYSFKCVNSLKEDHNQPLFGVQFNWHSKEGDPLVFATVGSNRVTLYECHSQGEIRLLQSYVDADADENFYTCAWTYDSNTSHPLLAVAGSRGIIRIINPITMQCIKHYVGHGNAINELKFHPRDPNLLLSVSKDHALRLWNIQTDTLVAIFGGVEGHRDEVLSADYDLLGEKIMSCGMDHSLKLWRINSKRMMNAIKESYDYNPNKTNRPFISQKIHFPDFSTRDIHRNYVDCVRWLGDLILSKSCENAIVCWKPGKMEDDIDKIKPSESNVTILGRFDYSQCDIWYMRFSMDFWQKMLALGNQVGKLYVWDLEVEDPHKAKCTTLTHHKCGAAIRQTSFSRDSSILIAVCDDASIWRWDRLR
Chain of wild type PRC2 (wtPRC2) complex (Q15910 whole entry partner): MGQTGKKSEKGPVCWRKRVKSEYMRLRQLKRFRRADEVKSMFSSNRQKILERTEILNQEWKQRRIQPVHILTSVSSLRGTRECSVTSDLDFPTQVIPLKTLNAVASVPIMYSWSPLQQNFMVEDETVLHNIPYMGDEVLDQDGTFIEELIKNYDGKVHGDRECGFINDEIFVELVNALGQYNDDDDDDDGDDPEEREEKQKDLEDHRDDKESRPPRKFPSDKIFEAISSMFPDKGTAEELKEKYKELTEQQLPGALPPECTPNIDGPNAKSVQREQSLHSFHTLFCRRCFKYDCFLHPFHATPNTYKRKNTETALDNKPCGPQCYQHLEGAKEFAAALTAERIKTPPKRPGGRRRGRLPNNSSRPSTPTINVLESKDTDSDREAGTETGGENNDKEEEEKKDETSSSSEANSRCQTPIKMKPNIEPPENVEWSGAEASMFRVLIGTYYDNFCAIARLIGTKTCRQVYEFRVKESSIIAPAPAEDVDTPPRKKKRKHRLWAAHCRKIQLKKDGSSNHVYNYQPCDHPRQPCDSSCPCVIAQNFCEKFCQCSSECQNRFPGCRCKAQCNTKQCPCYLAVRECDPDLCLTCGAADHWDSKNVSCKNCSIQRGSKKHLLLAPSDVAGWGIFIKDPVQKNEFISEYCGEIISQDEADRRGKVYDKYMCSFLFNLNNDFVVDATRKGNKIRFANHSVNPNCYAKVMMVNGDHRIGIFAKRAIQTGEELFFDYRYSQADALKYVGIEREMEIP
Chain of wild type PRC2 (wtPRC2) complex (Q15022 whole entry partner): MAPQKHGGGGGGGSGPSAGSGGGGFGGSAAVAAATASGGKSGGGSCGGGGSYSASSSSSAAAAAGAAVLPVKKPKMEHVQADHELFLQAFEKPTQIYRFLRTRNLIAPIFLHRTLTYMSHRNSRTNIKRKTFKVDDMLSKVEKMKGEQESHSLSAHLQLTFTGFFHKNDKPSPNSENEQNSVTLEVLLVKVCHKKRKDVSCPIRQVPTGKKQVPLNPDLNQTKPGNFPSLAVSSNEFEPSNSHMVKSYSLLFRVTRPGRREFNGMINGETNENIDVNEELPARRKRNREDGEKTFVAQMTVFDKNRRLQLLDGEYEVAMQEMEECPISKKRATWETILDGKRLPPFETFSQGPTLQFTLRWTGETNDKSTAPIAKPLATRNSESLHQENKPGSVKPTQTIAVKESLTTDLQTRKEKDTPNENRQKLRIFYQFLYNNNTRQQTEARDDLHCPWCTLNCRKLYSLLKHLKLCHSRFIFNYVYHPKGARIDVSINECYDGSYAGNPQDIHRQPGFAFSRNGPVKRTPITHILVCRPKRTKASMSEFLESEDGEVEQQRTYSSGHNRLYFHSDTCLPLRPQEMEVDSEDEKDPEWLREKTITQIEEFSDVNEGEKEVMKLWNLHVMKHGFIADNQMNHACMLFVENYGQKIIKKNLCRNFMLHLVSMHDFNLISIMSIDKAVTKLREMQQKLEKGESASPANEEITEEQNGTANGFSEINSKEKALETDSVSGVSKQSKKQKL
Chain of EED (1-441)-His protein (O75530 whole entry): as the sequence (O75530 whole entry) above

| IC50 [1] | IC50 (EED (1-441)-His protein) | IC50 [2] | SMILES |
| --- | --- | --- | --- |
| 19.5 nM | 7.7 nM | 11.1 nM | CC(C)S(=O)(=O)c1ccc(-c2cnc(NCc3c(F)ccc4c3CCO4)n3cncc23)cc1 [Example 30, N-((5-fluoro-2,3-dihydrobenzofuran-4-yl)methyl)-8-(4-(isopropylsulfonyl)phenyl)imidazo[1,5-c]pyrimidin-5-amine] |
| 2.1 nM | 3 nM | 10.5 nM | CCS(=O)(=O)c1ncn2c(NCc3c(F)ccc4c3CCO4)ncc(-c3cnc(C)nc3C)c12 [Example 104, 8-(2,4-dimethylpyrimidin-5-yl)-1-(ethylsulfonyl)-N-((5-fluoro-2,3-dihydrobenzofuran-4-yl)methyl)imidazo[1,5-c]pyrimidin-5-amine] |
| 13.1 nM | 7 nM | 13.6 nM | Cc1ncccc1-c1cnc(NCc2c(F)ccc3c2CCO3)n2cnc(C(=O)NN)c12 [Example 108, 5-(((5-fluoro-2,3-dihydrobenzofuran-4-yl)methyl)amino)-8-(2-methylpyridin-3-yl)imidazo[1,5-c]pyrimidine-1-carbohydrazide] |
| 337 nM | 139 nM | 56.8 nM | COc1cccc(F)c1CNc1ncc(-c2cccnc2C)c2c(C#N)ncn12 [Example 90, 5-((2-fluoro-6-methoxybenzyl)amino)-8-(2-methylpyridin-3-yl)imidazo[1,5-c]pyrimidine-1-carbonitrile] |
| 35.4 nM | 19.5 nM | 21.7 nM | Fc1ccc2c(c1CNc1ncc(-c3cccnc3F)c3cncn13)CCO2 [Example 21, N-((5-fluoro-2,3-dihydrobenzofuran-4-yl)methyl)-8-(2-fluoropyridin-3-yl)imidazo[1,5-c]pyrimidin-5-amine] |
| 36.1 nM | 5 nM | 10 nM | CS(=O)(=O)c1ncn2c(NCc3c(F)ccc4c3CCO4)ncc(Br)c12 [Example 103, 8-bromo-N-((5-fluoro-2,3-dihydrobenzofuran-4-yl)methyl)-1-(methylsulfonyl)imidazo[1,5-c]pyrimidin-5-amine] |
| 7 nM | 5.9 nM | 15.6 nM | N#Cc1ncn2c(NCc3c(F)ccc4c3CCO4)ncc(-c3cccnc3)c12 [Example 74, 5-(((5-fluoro-2,3-dihydrobenzofuran-4-yl)methyl)amino)-8-(pyridin-3-yl)imidazo[1,5-c]pyrimidine-1-carbonitrile] |
| 10.9 nM | – | 16.5 nM | Cc1ncccc1-c1cnc(NCc2c(F)ccc3c2CCO3)n2cnc(C(=O)NC3COC3)c12 [Example 106, 5-(((5-fluoro-2,3-dihydrobenzofuran-4-yl)methyl)amino)-8-(2-methylpyridin-3-yl)-N-(oxetan-3-yl)imidazo[1,5-c]pyrimidine-1-carboxamide] |
| – | 201 nM | 246 nM | COc1cccc(F)c1CNc1ncc(-c2ccc(CN(C)C)cc2)c2cncn12 [Example 68, 8-(4-((dimethylamino)methyl)phenyl)-N-(2-fluoro-6-methoxybenzyl)imidazo[1,5-c]pyrimidin-5-amine] |
| 2 nM | 5.5 nM | – | CCOC(=O)c1ncn2c(NCc3c(F)ccc4c3CCO4)ncc(-c3cccnc3C)c12 [Example 95, ethyl 5-(((5-fluoro-2,3-dihydrobenzofuran-4-yl)methyl)amino)-8-(2-methylpyridin-3-yl)imidazo[1,5-c]pyrimidine-1-carboxylate] |
| 72.2 nM | – | 9.4 nM | CS(=O)(=O)c1ccc(-c2cnc(NCc3c(F)ccc4c3CCO4)n3cnc(-c4ccccc4)c23)cc1 [Example 110, N-((5-fluoro-2,3-dihydrobenzofuran-4-yl)methyl)-8-(4-(methylsulfonyl)phenyl)-1-phenylimidazo[1,5-c]pyrimidin-5-amine] |
| 14.8 nM | – | 35.1 nM | CCN1CCN(c2ccc(-c3cnc(NCc4c(F)ccc5c4CCO5)n4cnc(C#N)c34)cn2)CC1 [Example 81, 8-(6-(4-ethylpiperazin-1-yl)pyridin-3-yl)-5-(((5-fluoro-2,3-dihydrobenzofuran-4-yl)methyl)amino)imidazo[1,5-c]pyrimidine-1-carbonitrile] |
